# According to publication PMC4389562, “Antigiardial activity of novel triazolyl-quinolone-based chalcone derivatives: when oxygen makes the difference” (Frontiers in Microbiology, 2015):
# pIC50: −log10 of the molar value. Read-outs that look alike come from different tables or passages of the source.
# What was measured:
# [1] = system: Giardia intestinalis trophozoites; test: Drug susceptibility of Giardia trophozoites, ATP level by luminescence (BacTiter-Glo), 48 h incubation, anaerobic or microaerobic; format: cell-based, Giardia intestinalis strain WB clone C6; details: for pIC50: Giardia duodenalis, 48 h, 37 °C, ATP level; for selectivity ratio at 48 h: human (Caco-2 cells) versus Giardia intestinalis, Caco-2, SI = IC50,Caco-2/IC50,Giardia
# Experimental: Trophozoites of G. intestinalis strain WB clone C6 (ATCC No. 50803TM) were cultured axenically at 37^∘C in 25-cm^2 flasks containing Diamond's TYI-S-33 medium supplemented with 10% bovine calf serum, 1 mg/mL bovine bile, 0.1 g/L streptomycin and 100 U/mL penicillin. Typically, 50 ml medium was inoculated with 25 × 10^6 cells and after 2 days cells were harvested by chilling the flasks on ice for 30 min for drug susceptibility assays. […] The assays were performed following the procedure described in [Bahadur et al. (2014)], using sterile 96-well white clear-bottom plates. […] Each drug concentration was tested in at least six replicates. MTZ was used as an internal positive control in the assay. The microtiter plates were then incubated at 37^∘C under anaerobic or microaerobic conditions, ensured by the Anaerocult® A or the Anaerocult® […] (Merck), respectively. […] Following 48 h incubation with the compound to be tested, 100 μL of the BacTiter-Glo^TM Microbial Cell Viability Assay System reagent (Promega) was added to each well for one-step lysis and ATP level detection. Plates were then incubated at room temperature for 15 min and ATP levels finally detected by luminescence on a plate reader (Wallac Victor3 1420 Multilabel Counter, PerkinElmer). Luminometric data were calibrated using ATP standard curves and normalized to the ATP level measured in control DMSO-treated cells (taken as 100%). The measured ATP level percentage was plotted as a function of the compound concentration and the half-maximal inhibitory concentration (IC50) was obtained by fitting the resulting titration profile to the Hill equation ([Goutelle et al., 2008]). The selectivity index (SI) of the compounds was then calculated as the ratio between the IC50 value measured on human cells over the value determined on Giardia trophozoites (SI = IC50,Caco-2/IC50,Giardia). The antigiardial activity of the novel compounds 23-67 was tested under both anaerobic and microaerobic conditions. According to ([Dunn et al., 2010]; [Bahadur et al., 2014]), susceptibility of Giardia trophozoites to increasing concentrations of each compound was assessed based on ATP level determination by luminescence. Dose-response curves for each compound were obtained after 48 h-incubation and compared to the data collected under identical conditions with MTZ, the drug of choice for treatment of giardiasis. […] Typical dose-response curves are shown in Figure 2, whereas the IC50 values measured for the synthetic compounds and MTZ under anaerobic and microaerobic conditions are reported in Table 1. […] Under anaerobic conditions, 18 out of the 45 synthetic compounds were as effective as MTZ or more under identical conditions (see Table 1).
# Caco-2 cells = test: Counter-screen on Caco-2 cells, ATP level by luminescence (ATPlite), 48 h incubation; format: cell-based, human; details: Homo sapiens, Caco-2, 48 h, atmospheric O2, 5% CO2, 48 h, 37 °C
# Experimental: Trophozoites of G. intestinalis strain WB clone C6 (ATCC No. 50803TM) were cultured axenically at 37^∘C in 25-cm^2 flasks containing Diamond’s TYI-S-33 medium supplemented with 10% bovine calf serum, 1 mg/mL bovine bile, 0.1 g/L streptomycin and 100 U/mL penicillin. […] Human epithelial colorectal adenocarcinoma (Caco-2) cells were grown in 25-cm^2 flasks in EMEM supplemented with 1% (v/v) non-essential amino acids, 2 mM glutamine, 5% (v/v) fetal bovine serum, 0.1 g/L streptomycin, and 100 U/mL penicillin.
# Cells were detached with 0.5% trypsin-EDTA and seeded in sterile 96-well white clear-bottom plates at the same density of Giardia trophozoites and at increasing concentration of the compound to be tested, as described above. The assays were carried out exactly as reported for the Giardia trophozoites, except that the plates were incubated (still at 37^∘C) at atmospheric O2 level, 5% CO2, and 95% humidity. Each drug concentration was tested in at least seven replicates. MTZ was used as an internal […] control in the assay. Following 48 h incubation with each compound, according to the manufacturer instructions, 100 μL of the ATPlite^TM luminescence assay system (Perkin Elmer) was added to each well for one-step lysis and ATP level detection by luminescence.
# Luminometric data were calibrated using ATP standard curves and normalized to the ATP level measured in control DMSO-treated cells (taken as 100%). The measured ATP level percentage was plotted as a function of the compound concentration and the half-maximal inhibitory concentration (IC50) was obtained by fitting the resulting titration profile to the Hill equation ([Goutelle et al., 2008]). The selectivity index (SI) of the compounds was then calculated as the ratio between the IC50 value measured on human cells over the value determined on Giardia trophozoites (SI = IC50,Caco-2/IC50,Giardia).
# Selectivity of the newly synthesized compounds toward Giardia was assessed by running a counter-screen on human epithelial Caco-2 cells. […] This allowed us to calculate the compounds SI, defined as the ratio between the IC50 value measured on human cells over the value determined on Giardia trophozoites.
# [2] = anaerobic conditions (Anaerocult A), read-out: Giardia (anaerobiosis) IC50
# [3] = microaerobic conditions (~5% O2, Anaerocult C), read-out: Giardia (microaerobiosis) IC50
# [4] = Giardia under anaerobiosis, read-out: Selectivity (IC50,Caco/IC50,Giardia) Anaerobiosis
# [5] = Giardia under microaerobiosis, read-out: Selectivity (IC50,Caco/IC50,Giardia) Microaerobiosis
melting point [°C],Structure (SMILES),"pIC50 [1, 2]","pIC50 [1, 3]","selectivity ratio at 48 h [1, 4]","selectivity ratio at 48 h [1, 5]",pIC50 (Caco-2 cells)
216 to 218,O=C(/C=C/c1cc2ccccc2n(Cc2cn(-c3ccc(Cl)cc3)nn2)c1=O)c1ccc(F)cc1 [Compound 52],5.05,5.92,2.7,19.9,4.62
180 to 182,O=C(/C=C/c1cc2ccccc2n(Cc2cn(-c3ccc(Cl)cc3)nn2)c1=O)c1ccc(Cl)cc1 [Compound 53],5.05,5.96,≥ 3,≥ 27,≤ 4.52
217 to 219,Cc1ccc(C(=O)/C=C/c2cc3ccccc3n(Cc3cn(-c4ccc(Cl)cc4)nn3)c2=O)cc1 [Compound 55],5.06,5.96,2.3,18.2,4.70
230 to 232,COc1ccccc1C(=O)/C=C/c1cc2ccccc2n(Cc2cn(-c3ccc(Cl)cc3)nn2)c1=O [Compound 56],5.49,6.22,2.6,14,5.08
215 to 217,COc1cccc(C(=O)/C=C/c2cc3ccccc3n(Cc3cn(-c4ccc(Cl)cc4)nn3)c2=O)c1 [Compound 57],5.18,5.96,2.2,11.3,4.83
210 to 212,COc1ccc(C(=O)/C=C/c2cc3ccccc3n(Cc3cn(-c4ccc(Cl)cc4)nn3)c2=O)cc1 [Compound 58],≤ 4.00,≤ 4.52,≤ 0.2,≤ 0.7,4.71
172 to 174,O=C(/C=C/c1cc2ccccc2n(Cc2cn(-c3ccccc3)nn2)c1=O)c1ccccc1F [Compound 59],5.72,6.40,5.9,28,4.95
180 to 182,O=C(/C=C/c1cc2ccccc2n(Cc2cn(-c3ccccc3)nn2)c1=O)c1cccc(F)c1 [Compound 60],5.46,6.15,≥ 14,≥ 71,≤ 4.30
202 to 204,O=C(/C=C/c1cc2ccccc2n(Cc2cn(-c3ccccc3)nn2)c1=O)c1ccc(F)cc1 [Compound 61],5.28,6.10,3.4,22.8,4.74
216 to 218,O=C(/C=C/c1cc2ccccc2n(Cc2cn(-c3ccccc3)nn2)c1=O)c1ccc(Cl)cc1 [Compound 62],5.68,6.15,2.8,8.4,5.23
216 to 218,Cc1ccc(C(=O)/C=C/c2cc3ccccc3n(Cc3cn(-c4ccccc4)nn3)c2=O)cc1 [Compound 64],5.55,6.30,6.4,35.6,4.75
